Experimental data taken from patent US20030134342A1, “Binding-specific peptides, binding-specific carrier molecules, and uses thereof” (priority 2001, published 2003).
Where a SMILES comes first, the peptide text is derived from it. Where no end group is shown, it is not given here.

How the values were obtained:
[1] = test system: human myeloid leukemia cell line HL60; assay: Proliferation of HL60 cells: cell number after 7 days culture; type: cell-based; settings: for No. Cells: HL60, after 7 days; for Percent relative to Controls: HL60 cell number after 7 days
Description: The number of cells after 7 days culture growth were counted in the presence or absence of the different molecules. Results are shown for the free G5 12-8B peptide alone (artificially synthesized), phage displaying G5 12-8B, the free A2 11-24 peptide, phage displaying the A2 11-24 peptide, a combination of the free G5 and A2 peptides, a combination of the free pure with phage displaying the peptides, and several concentrations of peptide.
(§1) Such inhibition is not the result of the killing of the cells. The data are graphed in the Figures.
The control number of cells per milliliter (2.6) is an average of results from dual controls (2.6×10^6).
(§2) DMSO, dimethylsulfoxide, is a chemical that induces HL60 cellular differentiation.

[2] = test system: human myeloid leukemia cell line HL60; assay: Differentiation of HL60 cells; type: cell-based
[3] = test system: human myeloid leukemia cell line HL60; assay: Differentiation of HL60 cells; type: cell-based; remark: listed apart in the source
Description: FIG. 1 illustrates the effects of several peptides on the differentiation of the human myeloid leukemia cell line HL60.
as §1, §2
The level of differentiation of the HL60 cells after 5 or 7 days growth in the presence or absence of the various phage and peptides combinations described above are shown in FIG. 1. The high level of differentiation that has been achieved is notable from the graph in FIG. 1. The levels of differentiation in the presence of peptide exceed that produced by the presence of phage alone.

[4] = test system: human myeloid leukemia cell line HL60; assay: Viability of HL60 cells, trypan blue; type: cell-based; settings: for Day 5 Viability: 5 day; for Day 7 Viability: 7 day; for Day 9 Viability: 9 day
Description: Studies were conducted of the effects of the free G5 12-8B (artificially synthesized), phage displaying G5 12-8B, the free A2 11-24 peptide, phage displaying the A2 11-24 peptide, a combination of the free G5 and A2 peptides, a combination of pure peptides plus phage displaying the peptides, and several concentrations of peptide.

[5] = test system: all myeloid cells, both malignant and nonmalignant; assay: ELISA binding of phage displaying peptides to fixed cells: all myeloid cells; design: species or system human; settings: in words
Description: (§3) Preliminary experiments were performed to identify specific peptides by using cells from patients diagnosed with CLL, CML, and AML. The screening was performed by incubating the cells with the phage-peptides from the library. This incubation allows interaction between the peptide and the cell. The binding step was followed by several washes to eliminate free phage. Phage bound on the cell surface was eluted.
(§4) After the last round of binding with one cell type, the eluted phage was plated on an agar plate with the appropriate selection antibiotics. Each individual colony, corresponding to one individual peptide sequence, was amplified in a 96-well plate. After purification, these peptides were tested for their ability to bind to the cells in a microtiter plate by ELISA.
(§5) Each peptide was dispensed in a 96-well plate, containing cells previously fixed. Each colony was tested in a triplicate assay with the appropriate controls. After incubation of cells with an individual clone, the wells were washed to eliminate free phage. The bound phages were detected by using a monoclonal anti-M13 antibody/horseradish peroxidase (HRP) conjugate. After addition of the HRP substrate, the intensity of the coloration was measured by spectrophotometry. The light absorbance values (optical density values, O.D. values) are proportional to the number of phage bound to the cells.
(§6) The binding to various cell types were examined to evaluate the cellular specificity of the phage clones. For example, the clones from phage eluted from CLL patient cells were assayed for their ability to bind cells from an AML patient. Cells from normal donors (non-leukemic) were also evaluated to ascertain leukemia cell specificity.
(§7) Peripheral blood and bone marrow samples were collected from patients after informed consent. The samples were collected in tubes containing sodium citrate. Mononuclear cells were isolated by Ficoll-Hypaque density gradient separation and collection of the cells at a density of 1.077 g/mL.
(§8) The wells of a 96-well plate were pre-treated with 100 μL of poly-L-lysine (0.01 mg/mL in phosphate-buffered saline, 120 mM NaCl, 2.7 mM KCl, 10 mM phosphate buffer, “PBS”) for 2-16 hours at room temperature. After draining the poly-L-lysine from the wells, the excess poly-L-lysine was removed from the wells by flicking. The cells were washed with PBS, then suspended in PBS and diluted to a final concentration of […]. The cell suspension (200 μL; 250,000 cells) were added to each well needed for the assay.
(§9) The plates were centrifuged at 500 g for about 5 minutes in a microplate carrying centrifuge when available. The cells were fixed to the wells through the addition of glutaraldehyde (100 μL of 0.5%) and incubating at room temperature for about an hour. The glutaraldehyde was removed and the cell-coated wells washed once with PBS. Alternatively, the cells were permitted to settle to the well bottoms for about 4 hours at 37° C., and the glutaraldehyde fixative was added after removing the PBS.
(§10) A glycine solution (200 μl of 0.1 M glycine in PBS) containing bovine serum albumin (BSA; 1%) was added to the wells and permitted to incubate for 30 minutes to block excess glutaraldehyde. The glycine was removed, and the cell-coated wells washed once with PBS. A sodium pyrophosphate solution (200 μL of 0.3 mg/mL NaPPi) was added to the wells and incubated for an hour at room temperature to neutralize lysine charges. The pyrophosphate solution was removed and the wells washed once with PBS. Multiwell microtiter plates with cell-coated wells were stored at 4° C. with fresh PBS solution in the coated wells.
(§11) The cells to be studied for binding were suspended in PBS and adsorbed onto to a poly-L-lysine pretreated 96-well plate and kept at 4° C. The PBS was removed from the wells and an H2O2 solution in PBS (6% H2O2 in 200 μL/well) was added. […]

[6] = test system: AML cells; assay: ELISA binding of phage displaying peptides to fixed cells: AML cells; design: species or system human; settings: in words
Description: as §3, §4, §5, §6, §7, §8, §9, §10, §11

[7] = test system: CLL cells; assay: ELISA binding of phage displaying peptides to fixed cells: CLL cells; design: species or system human; settings: in words
Description: as §3, §4, §5, §6, §7, §8, §9, §10, §11

[8] = test system: CML cells; assay: ELISA binding of phage displaying peptides to fixed cells: CML cells; design: species or system human; settings: in words
Description: as §3, §4, §5, §6, §7, §8, §9, §10, §11

[9] = test system: normal peripheral blood cells (lymphocytes and granulocytes); assay: ELISA binding of phage displaying peptides to fixed cells: normal peripheral blood cells; design: species or system human; settings: in words
Description: as §3, §4, §5, §6, §7, §8, §9, §10, §11

[10] = test system: human bone marrow AML cells; assay: Effect of phage-peptides on differentiation, cell number and viability of freshly obtained AML patient bone marrow cells cultured seven days; type: cell-based; settings: for Number of Cells / Percent Differentiation: phage-peptides; for Percent differentiated in Specimen 2 / Percent differentiated in Specimen 1: peptides in bacteriophage, AML cells cultured seven days in vitro
Description: The effect of various phage-peptides were studied on the differentiation of cells from two AML patients.

CC[C@H](C)[C@H](NC(=O)[C@@H](N)CS)C(=O)N[C@@H](CCC(=O)O)C(=O)N[C@@H](CCC(=O)O)C(=O)N[C@H](C(=O)N[C@@H](C)C(=O)N[C@@H](CCCNC(=N)N)C(=O)N[C@@H](CCCCN)C(=O)NCC(=O)N[C@@H](CS)C(=O)O)[C@@H](C)O [A2 11-24 peptide] (H-CIEETARKGC-OH; N-terminus and C-terminus assumed)
No. Cells ([1]; free peptide at 10^−4 M): 2.0 10^6 cell/mL
Percent relative to Controls ([1]; free peptide at 10^−4 M): 77%
Day 9 % Diff. ([2]; free peptide at 10^−4 M): 25%
Day 5 % Diff. ([3]; free peptide at 10^−4 M): 18%
Day 5 % Diff., figure in parentheses ([3]; free peptide at 10^−4 M): 150%
Day 7 % Diff. ([3]; free peptide at 10^−4 M): 30%
Day 7 % Diff., figure in parentheses ([3]; free peptide at 10^−4 M): 188%
Day 5 Viability [4]: 100%
Day 7 Viability [4]: 96%
Day 9 Viability [4]: 87%

CEFQQWSGKC [G5 12-8B]
binding of phage displaying the peptide to all myeloid cells, both malignant and nonmalignant [5]: bind
binding of phage displaying the peptide to AML cells [6]: bind
binding of phage displaying the peptide to CLL cells [7]: bind
binding of phage displaying the peptide to CML cells [8]: bind
binding of phage displaying the peptide to blood cells (lymphocytes or granulocytes) [9]: bind

DEKRGPNE [B4(1)]
Number of Cells ([10]; Patient 1): 1.3 106
Number of Cells ([10]; Patient 2): 0.25 106
Percent Differentiation ([10]; Patient 2): 53%
Percent differentiated in Specimen 2 [10]: 53%
binding of phage displaying the peptide to AML cells [6]: bind
binding of phage displaying the peptide to CML cells [8]: bind

EFQQWSGK [B7(1)]
binding of phage displaying the peptide to AML cells [6]: bind
binding of phage displaying the peptide to CLL cells [7]: not
binding of phage displaying the peptide to CML cells [8]: bind

EFQQWSGK [G2 11-24]
Number of Cells ([10]; Patient 1): 1.11 106
Percent Differentiation ([10]; Patient 1): 16.2%
Number of Cells ([10]; Patient 2): 0.25 106
Percent Differentiation ([10]; Patient 2): 39%
Percent differentiated in Specimen 1 [10]: 16%
Percent differentiated in Specimen 2 [10]: 39%
binding of phage displaying the peptide to AML cells [6]: bind and binds
binding of phage displaying the peptide to CML cells [8]: bind and binds

EFQQWSGK [G5 12-8B phage]
Number of Cells ([10]; Patient 1): 1.11 106
Percent Differentiation ([10]; Patient 1): 27.9%
Number of Cells ([10]; Patient 2, listed as GS-12-8B): 0.31 106
Percent Differentiation ([10]; Patient 2, listed as GS-12-8B): 61%
Percent differentiated in Specimen 1 [10]: 28%
Percent differentiated in Specimen 2 [10]: 61%
No. Cells ([1]; phage 75): 3.8 10^6 cell/mL
Percent relative to Controls ([1]; phage 75): 140%
Day 9 % Diff. ([2]; phage 75): 46%
Day 5 % Diff. ([3]; phage 75): 17%
Day 5 % Diff., figure in parentheses ([3]; phage 75): 142%
Day 7 % Diff. ([3]; phage 75): 46%
Day 7 % Diff., figure in parentheses ([3]; phage 75): 288%

EFQQWSGK [H3 11-24]
binding of phage displaying the peptide to CLL cells [7]: bind

IEETARKG [A2 11-24 phage]
Number of Cells ([10]; Patient 1): 0.75 106
Percent Differentiation ([10]; Patient 1): 79.2%
Number of Cells ([10]; Patient 2): 0.33 106
Percent Differentiation ([10]; Patient 2): 49.5%
Percent differentiated in Specimen 1 [10]: 79%
Percent differentiated in Specimen 2 [10]: 50%
No. Cells ([1]; phage 75): 1.6 10^6 cell/mL
Percent relative to Controls ([1]; phage 75): 62%
Day 9 % Diff. ([2]; phage 75): 64%
Day 5 % Diff. ([3]; phage 75): 18%
Day 5 % Diff., figure in parentheses ([3]; phage 75): 150%
Day 7 % Diff. ([3]; phage 75): 52%
Day 7 % Diff., figure in parentheses ([3]; phage 75): 325%

IEETARKG [D9 12-8B]
binding of phage displaying the peptide to all myeloid cells, both malignant and nonmalignant [5]: bind
binding of phage displaying the peptide to AML cells [6]: bind
binding of phage displaying the peptide to CLL cells [7]: bind
binding of phage displaying the peptide to CML cells [8]: bind
binding of phage displaying the peptide to blood cells (lymphocytes or granulocytes) [9]: bind

IEETARKG [peptide A2]
Day 5 Viability [4]: 97%
Day 7 Viability [4]: 95%
Day 9 Viability [4]: 74%

NELHMKQH [G6 12-8B]
binding of phage displaying the peptide to all myeloid cells, both malignant and nonmalignant [5]: bind

NETTVREY [A7 11-24]
binding of phage displaying the peptide to CLL cells [7]: bind
binding of phage displaying the peptide to blood cells (lymphocytes or granulocytes) [9]: bind

NETTVREY [C9 11-24]
binding of phage displaying the peptide to all myeloid cells, both malignant and nonmalignant [5]: bind
binding of phage displaying the peptide to AML cells [6]: bind
binding of phage displaying the peptide to CLL cells [7]: bind
binding of phage displaying the peptide to CML cells [8]: bind
binding of phage displaying the peptide to blood cells (lymphocytes or granulocytes) [9]: bind

NETTVREY [F10 11-24]
binding of phage displaying the peptide to all myeloid cells, both malignant and nonmalignant [5]: bind
binding of phage displaying the peptide to AML cells [6]: bind
binding of phage displaying the peptide to CLL cells [7]: not
binding of phage displaying the peptide to CML cells [8]: bind

NHVCSRLG [B4(2)]
binding of phage displaying the peptide to AML cells [6]: bind
binding of phage displaying the peptide to CLL cells [7]: bind
binding of phage displaying the peptide to CML cells [8]: bind
binding of phage displaying the peptide to blood cells (lymphocytes or granulocytes) [9]: bind

NHVCSRLG [B6 11-24]
binding of phage displaying the peptide to all myeloid cells, both malignant and nonmalignant [5]: bind

NNATVEDE [F9 11-24]
binding of phage displaying the peptide to all myeloid cells, both malignant and nonmalignant [5]: bind

VSEDIYDA [C10 12-8B]
binding of phage displaying the peptide to all myeloid cells, both malignant and nonmalignant [5]: bind
binding of phage displaying the peptide to AML cells [6]: bind
binding of phage displaying the peptide to CLL cells [7]: bind
binding of phage displaying the peptide to CML cells [8]: bind

VSEDIYDA [E5 12-8B]
binding of phage displaying the peptide to CLL cells [7]: bind
binding of phage displaying the peptide to blood cells (lymphocytes or granulocytes) [9]: bind

VSEDIYDA [F1 12-8B]
Number of Cells ([10]; Patient 1): 0.82 106
Percent Differentiation ([10]; Patient 1): 34%
Number of Cells ([10]; Patient 2): 0.22 106
Percent Differentiation ([10]; Patient 2): 52%
Percent differentiated in Specimen 1 [10]: 34%
Percent differentiated in Specimen 2 [10]: 52%
binding of phage displaying the peptide to all myeloid cells, both malignant and nonmalignant [5]: bind
binding of phage displaying the peptide to AML cells [6]: binds and bind
binding of phage displaying the peptide to CLL cells [7]: not
binding of phage displaying the peptide to CML cells [8]: binds and bind
